Data from US20130030012A1, “COMPOUNDS” (Glaxo Group Limited, priority 2011, published 2013).
Like-named read-outs stand apart in the source and are kept apart here.

What was measured:
[1] = target: T1, recombinant human Lp-PLA2 (Homo sapiens, UniProt Q13093); experiment: Recombinant human Lp-PLA2 assay (rhLp-PLA2, PED6 assay); format: biochemical; details: upper limit for pIC50 in this assay is 9.3
T1 sequence (Q13093 22-441): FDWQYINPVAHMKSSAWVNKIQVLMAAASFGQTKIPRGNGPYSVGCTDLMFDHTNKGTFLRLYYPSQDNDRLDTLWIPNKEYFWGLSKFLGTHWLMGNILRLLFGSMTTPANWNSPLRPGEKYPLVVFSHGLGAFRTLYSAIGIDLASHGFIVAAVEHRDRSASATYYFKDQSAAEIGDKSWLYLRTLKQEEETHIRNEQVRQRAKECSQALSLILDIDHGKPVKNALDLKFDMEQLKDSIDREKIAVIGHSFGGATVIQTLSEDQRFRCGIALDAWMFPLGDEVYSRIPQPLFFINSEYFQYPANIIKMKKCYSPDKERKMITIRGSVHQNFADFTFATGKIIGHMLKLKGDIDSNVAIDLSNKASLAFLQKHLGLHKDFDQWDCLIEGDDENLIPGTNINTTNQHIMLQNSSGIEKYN
From the text: (1) Recombinant Human Lp-PLA2 Assay (rhLp-PLA2) (Also Referred to as “PED6” Assay)
N-((6-(2,4-dinitrophenyl)amino)-hexanoyl)-2-(4,4-difluoro-5,7-dimethyl-4-bora-3a,4a-diaza-s-indacene-3-pentanoyl)-1-hexadecanoyl-sn-glycero-3-phosphoethanolamine, triethylammonium salt (PED6) is a commercially available fluorescently-labeled phospholipid, which is commercially available from Invitrogene and Molecular Probes. There is a quenching […] and a Bodipy fluorescein (FL) group in the sn2 position. Upon cleavage with Lp-PLA2, the Bodipy FL group is liberated and then may result in an increase in fluorescence. Inhibitors of Lp-PLA2 therefore prevent this cleavage and no fluorescent increase is observed.
The PED6 assay was run as an unquenched 10 μL assay. The source plate containing the compounds to be tested was prepared by making 1:3 (by volume) serial dilution of the compounds within DMSO on 384-well microplate. Then, 0.01 μL of the compounds on compound source plate were transferred into 384 well Greiner 784076 (black) plates using ECHO liquid dispenser. 5 μL of recombinant human Lp-PLA2 enzyme (4 nM (or 110 pM) rhLp-PLA2 in assay buffer of 50 mM HEPES, pH 7.4, 150 mM NaCl, 1 mM CHAPS) was added to each well of the plate. Plates were centrifuged for 10 sec at 500 rpm. After 30 minutes preincubation, 5 μL of substrate ([…] (or 5 μM) PED6 [from 5 mM DMSO stock] in assay buffer of 50 mM HEPES, pH 7.4, 150 mM NaCl, 1 mM CHAPS) was added to 384 well Greiner 784076 (black) plates. Plates were centrifuged for 10 sec at 500 rpm. The plate was covered to protect it from light and incubated for 20 min at room temperature. The plates were read for fluorescence intensity at ex: 480/em: 540 using ViewLux microplate imager for Envision spectrofluoroimeters pIC50 data, curve and QC analysis was conducted by using XL fit module in Excel.
The compounds described below were tested generally according to the PED6 assay described above.

Lp-PLA2 in human plasma = target: T2, Lp-PLA2 in human plasma (Homo sapiens, UniProt Q13093); experiment: Lp-PLA2 human plasma assay (Thio-PAF assay); format: biochemical; details: pooled human plasma; read-out: pIC50 values in the thio-PAF assay (converted)
T2 construct: from tissue; host or cells: pooled human plasma
T2 sequence (Q13093 22-441): T1 sequence (Q13093 22-441)
From the text: The human plasma assay utilizes a thioester analog of PAF (phosphatidylcholine), where hydrolysis yields to the formation of a phospholipid containing a free thiol group. The amount of thiol is quantitated continuously by reacting with CPM (7-diethylamino-3-(4′-maleimidylphenyl)-4-methylcoumarin), a maleimide which increases in fluoresence after Michael addition of thiols. This assay may detect the activity of Lp-PLA2 in human plasma, as determined by specific inhibition by Lp-PLA2 inhibitors.
The thio-PAF assay was run as a quenched 15 μL assay. Compounds source plate was prepared by making 1:3 (by volume) serial dilution of the compounds into pure DMSO on 384-well microplate. 0.01 μL of compounds on compound source plate were transferred to 384 well Greiner 784076 (black) low-volume plates by ECHO liquid dispenser. 8 μL pooled human plasma, which was previously aliquoted and frozen, was added. Plates were centrifuged for 10 sec at 500 rpm. After 30 minutes preincubation, 2 μL of substrate solution comprising 2.5 mM 2-thio-PAF [from ethanol stock], […] CPM [from a DMSO stock] and 3.2 mM NEM (N-ethylmaleimide) [made fresh daily in DMSO] in assay buffer of 50 mM HEPES, pH 7.4, 150 mM NaCl, 1 mM CHAPS was added to 384 well Greiner 784076 (black) low-volume plates by BRAVO liquid handling station. After 2 mins, reaction was quenched with 5 μL of 5% aqueous trifluoroacetic acid (TFA). Plates were covered to protect from light and incubated for 40 min at room temperature. Plates were read at ex: 380/em: 485 using—Envision microplate reader. pIC50 data, curve and QC analysis was conducted by using XLFit module in Excel.

[2] = Table 1, read-out: rhLp-PLA2 (PED6 assay) (pIC50) (converted)
[3] = read-out: pIC50 values in the PED6 assay (converted)

IC50 [1, 2] [nM] | IC50 [1, 3] [nM] | IC50 (Lp-PLA2 in human plasma) [nM] | SMILES
1.26 | ≤ 10 | ≤ 100 | CN1CCCn2c1cc(OCc1ccc(Oc3cccnc3)c(C#N)c1)nc2=O [Example 76, 5-(((1-methyl-6-oxo-2,3,4,6-tetrahydro-1H-pyrimido[1,6-a]pyrimidin-8-yl)oxy)methyl)-2-(pyridin-3-yloxy)benzonitrile]
– | ≤ 10 | ≤ 1000 | CN1CCCn2c1cc(OCc1ccc(Oc3cccc(C(F)(F)F)c3)cc1)nc2=O [Example 77, 1-methyl-8-((4-(3-(trifluoromethyl)phenoxy)benzyl)oxy)-3,4-dihydro-1H-pyrimido[1,6-a]pyrimidin-6(2H)-one]
– | ≤ 10 | ≤ 1000 | CN1CCCn2c1cc(OCc1cc(F)c(Oc3cccc(F)c3)c(F)c1)nc2=O [Example 78, 8-((3,5-difluoro-4-(3-fluorophenoxy)benzyl)oxy)-1-methyl-3,4-dihydro-1H-pyrimido[1,6-a]pyrimidin-6(2H)-one]
0.794 | ≤ 1 | ≤ 100 | CN1CCCn2c1cc(OCc1cc(F)c(Oc3cc(F)cc(F)c3)c(F)c1)nc2=O [Example 79, 8-((4-(3,5-difluorophenoxy)-3,5-difluorobenzyl)oxy)-1-methyl-3,4-dihydro-1H-pyrimido[1,6-a]pyrimidin-6(2H)-one]
– | ≤ 1 | ≤ 100 | CN1CCCn2c1cc(OCc1ccc(Oc3cccc(F)c3)c(C#N)c1)nc2=O [Example 80, 2-(3-fluorophenoxy)-5-(((1-methyl-6-oxo-2,3,4,6-tetrahydro-1H-pyrimido[6-a]pyrimidin-8-yl)oxy)methyl)benzonitrile]
– | ≤ 1 | ≤ 100 | CN1CCCn2c1cc(OCc1cc(F)c(Oc3cccc(C(F)(F)F)c3)c(F)c1)nc2=O [Example 81, 8-((3,5-difluoro-4-(3-(trifluoromethyl)phenoxy)benzyl)oxy)-1-methyl-3,4-dihydro-1H-pyrimido[1,6-a]pyrimidin-6(2H)-one]
– | ≤ 1 | ≤ 100 | CN1CCCn2c1cc(OCc1cc(F)c(Oc3ccc(Cl)c(F)c3)c(F)c1)nc2=O [Example 82, 8-((4-(4-chloro-3-fluorophenoxy)-3,5-difluorobenzyl)oxy)-1-methyl-3,4-dihydro-1H-pyrimido[1,6-a]pyrimidin-6(2H)-one]
< 0.501 | ≤ 1 | ≤ 100 | CN1CCCn2c1cc(OCc1cc(F)c(Oc3ccc(F)c(Cl)c3)c(F)c1)nc2=O [Example 83, 8-((4-(3-chloro-4-fluorophenoxy)-3,5-difluorobenzyl)oxy)-1-methyl-3,4-dihydro-1H-pyrimido[1,6-a]pyrimidin-6(2H)-one]
– | ≤ 1 | ≤ 100 | CN1CCCn2c1cc(OCc1ccc(Oc3ccc(F)c(Cl)c3)c(C#N)c1)nc2=O [Example 84, 2-(3-chloro-4-fluorophenoxy)-5-(((1-methyl-6-oxo-2,3,4,6-tetrahydro-1H-pyrimido[1,6-a]pyrimidin-8-yl)oxy)methyl)benzonitrile]
– | ≤ 10 | ≤ 1000 | CN1CCCn2c1cc(OCc1ccc(Oc3cccc(C#N)c3)c(F)c1)nc2=O [Example 85, 3-(2-fluoro-4-(((1-methyl-6-oxo-2,3,4,6-tetrahydro-1H-pyrimido[1,6-a]pyrimidin-8-yl)oxy)methyl)phenoxy)benzonitrile]
– | ≤ 10 | ≤ 1000 | CN1CCCn2c1cc(OCc1cc(F)c(Oc3ccc(F)cc3)c(F)c1)nc2=O [Example 87, 8-((3,5-difluoro-4-(4-fluorophenoxy)benzyl)oxy)-1-methyl-3,4-dihydro-1H-pyrimido[1,6-a]pyrimidin-6(2H)-one]
– | ≤ 1 | ≤ 100 | CN1CCCn2c1cc(OCc1cc(F)c(Oc3ccc(F)c(C(F)(F)F)c3)c(F)c1)nc2=O [Example 88, 8-((3,5-difluoro-4-(4-fluoro-3-(trifluoromethyl)phenoxy)benzyl)oxy)-1-methyl-3,4-dihydro-1H-pyrimido[1,6-a]pyrimidin-6(2H)-one]
– | ≤ 10 | ≤ 100 | CN1CCCn2c1cc(OCc1cc(F)c(Oc3ccc(C(F)(F)F)cc3)c(F)c1)nc2=O [Example 89, 8-((3,5-difluoro-4-(4-(trifluoromethyl)phenoxy)benzyl)oxy)-1-methyl-3,4-dihydro-1H-pyrimido[1,6-a]pyrimidin-6(2H)-one]
– | ≤ 1 | ≤ 1000 | CN1CCCn2c1cc(OCc1cc(F)c(Oc3cccc(Cl)c3)c(F)c1)nc2=O [Example 90, 8-((4-(3-chlorophenoxy)-3,5-difluorobenzyl)oxy)-1-methyl-3,4-dihydro-1H-pyrimido[1,6-a]pyrimidin-6(2H)-one]
– | ≤ 1 | ≤ 100 | O=c1nc(OCc2cc(F)c(Oc3ccc(F)c(F)c3)c(F)c2)cc2n1CCCN2 [Example 91, 8-((4-(3,4-difluorophenoxy)-3,5-difluorobenzyl)oxy)-3,4-dihydro-1H-pyrimido[1,6-a]pyrimidin-6(2H)-one]
– | ≤ 10 | ≤ 100 | N#Cc1cc(COc2cc3n(c(=O)n2)CCCN3)ccc1Oc1ccc(C(F)(F)F)cn1 [Example 92, 5-(((6-oxo-2,3,4,6-tetrahydro-1H-pyrimido[1,6-a]pyrimidin-8-yl)oxy)methyl)-2-((5-(trifluoromethyl)pyridin-2-yl)oxy)benzonitrile]
≤ 0.501 | ≤ 1 | ≤ 100 | O=c1nc(OCc2cc(F)c(Oc3ccc(F)c(C(F)(F)F)c3)c(F)c2)cc2n1CCCN2 [Example 93, 8-((3,5-difluoro-4-(4-fluoro-3-(trifluoromethyl)phenoxy)benzyl)oxy)-3,4-dihydro-1H-pyrimido[1,6-a]pyrimidin-6(2H)-one]
– | ≤ 1 | ≤ 100 | N#Cc1cc(COc2cc3n(c(=O)n2)CCCN3)ccc1Oc1ccc(F)c(F)c1 [Example 94, 2-(3,4-difluorophenoxy)-5-(((6-oxo-2,3,4,6-tetrahydro-1H-pyrimido[1,6-a]pyrimidin-8-yl)oxy)methyl)benzonitrile]
– | ≤ 1 | ≤ 100 | CN1CCCn2c1cc(OCc1ccc(Oc3ccc(Cl)nc3)c(F)c1)nc2=O [Example 95, 8-((4-((6-chloropyridin-3-yl)oxy)-3-fluorobenzyl)oxy)-1-methyl-3,4-dihydro-1H-pyrimido[1,6-a]pyrimidin-6(2H)-one]
– | ≤ 1 | ≤ 100 | CN1CCCn2c1cc(OCc1ccc(Oc3ccc(Cl)c(F)c3)c(C#N)c1)nc2=O [Example 96, 2-(4-chloro-3-fluorophenoxy)-5-(((1-methyl-6-oxo-2,3,4,6-tetrahydro-1H-pyrimido[1,6-a]pyrimidin-8-yl)oxy)methyl)benzonitrile]
